Paper PMC11649397, “The study of halogen effect on the reactivity of the serine-targeting covalent warheads” (Frontiers in Chemistry, 2024)
Values joined by “and” are separate entries in the source; they are usually repeats but may differ in a detail not shown here. Equal entries are not always repeated. “Also recorded” adds a separate entry of the source. Where two headings read alike, the source gives them in different places.

Columns and labels:
hCES1A = biological target: T1, hCES1A (Homo sapiens, UniProt P23141); experiment: Inhibition assay on hCES1A (bioluminogenic substrate NLMe); assay type: biochemical; conditions: for selective inhibitory activity on hCES1A: 10 μM, selectivity screening; for IC50: mean ± SD, n = 3; for anti-hCES1A effect in screening of the covalent fragment library: high-throughput screening, Figure 1
T1 sequence (P23141 18-567): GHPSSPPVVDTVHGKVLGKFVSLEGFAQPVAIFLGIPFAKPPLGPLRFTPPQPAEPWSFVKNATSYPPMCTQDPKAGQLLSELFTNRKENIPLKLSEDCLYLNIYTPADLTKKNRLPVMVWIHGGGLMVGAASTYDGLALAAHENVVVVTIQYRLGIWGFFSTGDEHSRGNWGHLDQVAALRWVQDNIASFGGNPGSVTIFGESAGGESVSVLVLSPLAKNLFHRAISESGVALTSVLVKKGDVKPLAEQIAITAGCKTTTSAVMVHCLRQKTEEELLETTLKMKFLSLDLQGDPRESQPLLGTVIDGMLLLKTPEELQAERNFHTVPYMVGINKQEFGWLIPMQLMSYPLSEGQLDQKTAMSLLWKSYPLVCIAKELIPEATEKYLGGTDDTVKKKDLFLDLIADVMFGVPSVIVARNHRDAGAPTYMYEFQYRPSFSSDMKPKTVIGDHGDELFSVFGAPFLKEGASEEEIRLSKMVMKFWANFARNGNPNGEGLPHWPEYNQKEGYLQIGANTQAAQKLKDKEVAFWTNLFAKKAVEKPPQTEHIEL
Method: In this study, a known bioluminogenic probe substrate NLMe was used for human carboxylesterase 1 (hCES1A) inhibition assays. ([Wang et al., 2020]). In brief, the incubation mixture (0.1 mL) consisted of 0.1 M buffer PBS (PH 6.5), hCES1A (0.1 μg/mL, final concentration) and each test compound. […] After 20 min incubation, equal volume of LDR was added to stop reaction. The luminescence signals were monitored in the microplate reader (SpectraMax iD3Molecular Devices, Austria). […]
The household library of covalent fragments including D and F was from Organic Chemistry […]
Fig. S1. Partial fragment molecules of a household library targeting to serine. […]
Inhibition assay on hCES1A
In this study, a known bioluminogenic probe substrate NLMe was used for human carboxylesterase 1 (hCES1A) inhibition assays. 2 In brief, the incubation mixture (0.1 mL) consisted of 0.1 M buffer PBS (PH 6.5), hCES1A (0.1 μg/mL, final concentration) and each test compound. […]
After 20 min incubation, equal volume of LDR was added to stop reaction.

Notum = biological target: T2, Notum (Homo sapiens, UniProt Q6P988); experiment: Inhibition assay on Notum (substrate OPTS); assay type: biochemical; conditions: 10 μM, selectivity screening
T2 sequence (Q6P988 20-496): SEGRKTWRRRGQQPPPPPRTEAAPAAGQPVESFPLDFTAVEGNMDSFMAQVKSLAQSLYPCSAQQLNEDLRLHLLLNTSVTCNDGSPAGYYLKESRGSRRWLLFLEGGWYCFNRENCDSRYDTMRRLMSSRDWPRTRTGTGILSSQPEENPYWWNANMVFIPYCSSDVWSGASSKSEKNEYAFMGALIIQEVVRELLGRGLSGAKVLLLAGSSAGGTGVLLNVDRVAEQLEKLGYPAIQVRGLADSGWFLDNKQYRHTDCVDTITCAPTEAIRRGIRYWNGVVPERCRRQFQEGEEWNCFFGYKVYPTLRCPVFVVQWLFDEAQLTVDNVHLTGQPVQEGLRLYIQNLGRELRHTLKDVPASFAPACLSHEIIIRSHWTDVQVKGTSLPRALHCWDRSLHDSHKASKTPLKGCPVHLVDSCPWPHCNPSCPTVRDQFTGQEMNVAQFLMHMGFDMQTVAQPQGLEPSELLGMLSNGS
Method: fluorogenic probe. 4 Briefly, the incubation mixtures (0.1 mL) contained Tris-HCl buffer, hPL solution (0.25 μg/mL, final concentration), porcine bile salt (0.1 mg/mL, final concentration) and each inhibitor (with different concentrations). After preincubated at 37 °C for 3 min, DDAO-ol (20 µM, final concentration) was added to initial reaction. The fluorescent signals of hydrolytic product were quantified by using the microplate reader (Spectra Max M4, Austria), with the wavelength of 600 nm and 660 nm for excitation and emission, respectively.
Inhibition assay on Notum
OPTS, a known fluorogenic probe, was used as the substrate to assess the residual activities of Notum in the presence of each tested compound. […] After preincubated at 37 °C for 1 min, OPTS was added to initiate the hydrolytic reaction and the multi-mode microplate reader (SpectraMax iD3, Molecular Devices, Austria) was used to analyze the florescence signals of the […]
The F-3, F-4, F-10-bound peptides was analysed using the nanoLC-MS/MS system, respectively.6 The purified hCES1A (150 μg, final content) was co-incubated with the small molecule inhibitor F-3/ F-4/ F-10 (100 μM, final concentration) at 4 °C and 25 °C, respectively, for 4h. […]

O=C(c1ccccc1)C(F)(F)F [F, 2,2,2-trifluoroacetophenone]
selective inhibitory activity on hCES1A (hCES1A): decent selective inhibitory activities | IC50 (hCES1A; 3 min incubation, read-out: hCES1A IC50 3 min): 24.1 ± 1 nM | time-dependent inhibition against hCES1A (hCES1A; 3 min vs 33 min incubation): weak time-dependent inhibition | IC50 (hCES1A; 33 min incubation, read-out: hCES1A IC50 33 min): 11 nM and 11.1 nM | anti-hCES1A effect in screening of the covalent fragment library (hCES1A): potent anti-hCES1A effects; also recorded: strong and selective inhibition against hCES1A | hCES1A IC50 Fold Increase (hCES1A; ratio of IC50 at 3 min to IC50 at 33 min): 2 and 2.2 | response to Notum (Notum): no potent responses

O=S(=O)(F)c1ccc(Br)cc1 [D, 4-bromobenzenesulfonyl fluoride]
selective inhibitory activity on hCES1A (hCES1A): decent selective inhibitory activities | difference between IC50 values of hCES1A and hCES2A (hCES1A; hCES1A vs hCES2A): no statistically significant difference | anti-hCES1A effect in screening of the covalent fragment library (hCES1A): potent anti-hCES1A effects; also recorded: strong and selective inhibition against hCES1A | response to Notum (Notum): no potent responses
